We go through one compound from patent US5190783A, “Primary amide esters as low calorie fat mimetics” (Nabisco, Inc., priority 1991, dated 1993).

This data set can be described thus: caloric availability by in vivo animal feeding study (body weight gain). The settings on record: rats, diet of 50% fort and 21% test compound, 14 days. Details: species or system Sprague-Dawley rats. The source says: This example illustrates how the novel fat mimetics of this invention are screened for caloric availability by a carefully controlled in vivo animal feeding study.
An experimental relationship between total calories ingested and animal body weight gain is established by monitoring the body weight gain associated with consumption of a nutritionally balanced diet containing varying concentrations of a reference substance such as corn oil which has a known caloric availability. Correlations between total calories ingested and body weight gain are excellent (r=0.99).
Caloric availability of a test material is evaluated by substituting a specific weight of the test material for the reference substance and observing the body weight gain. The gain in body weight is equated to a total number of calories using the correlation previously established for the reference data. The estimated number of calories ingested are divided by the weight of test material to give the apparent calories per gram for the test material. Generally speaking, in these bioavailability studies, the degree of perianal pelt soiling correlates with reduced bioavailability.
The test animals are six-week-old male Sprague-Dawley rats obtained from the Portage, Michigan facility of the Charles River Laboratories, Inc. After acclimation for 15 days, the test duration is 14 days. […]

Turning to `CCCCCCCC/C=C\CCCCCCCC(=O)NCC(COC(=O)CCCCCCC/C=C\CCCCCCCC)OC(=O)CCCCCCC/C=C\CCCCCCCC` (stereo not shown) [Example 2, 2,3-s(oleyoyloxy)propyl oleamide], the “calories upon being metabolized (apparent calories per gram)” value was “about 3.3 kcal/gram”.
